According to patent publication US6663865B1, “Tumor necrosis factor antagonists and their use in endometriosis” (Applied Research Systems ARS Holding N.V., priority 1999, dated 2003):

Key:
[1] = test system: endometriosis; conditions: cited from earlier work
[2] = test system: endometriotic-like foci; experiment: Experimental model of endometriosis in the rat (size of engraftments); format: in vivo; conditions: for Mean ± SEM Post-treatment values (engraftment surface area): s.c., soluble TNF-RI 10 mg/kg, Antide 2 mg/kg; for Mean ± SEM Pre-treatment values (engraftment surface area): baseline at pre-treatment laparatomy
Description: Experimental model of endometriosis in the rat. To explore the effects of the recombinant soluble TNF-RI in endometriosis, a previously described experimental model (Jones, 1987) was used with minor modifications. Under Inoketam/Rompun anaesthesia, an autologous fragment of endometrial tissue (1 cm in length) was resected from the right uterine horn and placed in PBS at 37° C. The uterine segment was opened by a longitudinal incision, and a 5×5 mm section was transplanted, without removing the myometrium, onto the inner surface of the abdominal wall using non-absorbable silk suture at four comers.
Exploration of the study drugs effects in the experimental model of endometriosis. […] One further group of rats, not undergoing any surgical procedure, was kept as a normal control group. Three weeks after the induction of endometriosis, the animals underwent a second laparatomy (pre-treatment laparatomy) to evaluate the size and viability of the ectopic endometrial tissue. The surface area (length×width) was measured using a calliper and recorded. The animals showing viable engraftments were assigned to the designated treatment groups as reported in Table I, so that at the end of the experiment, six animals/group for the first sacrifice time-point and five animals/group for the second sacrifice time-point were obtained. The treatments were started after a 1-week recovery period. The control groups received saline alone; another group received three subcutaneous injections of 2 mg/kg Antide every 3 days with a regimen previously shown to suppress ovarian and hypothalamic activity (Sharpe et al., 1990). A further group received 10 mg/kg recombinant soluble TNF-RI, divided into two daily doses over a 1-week period.
(§1) At the designated sacrifice time-points (2 and 9 days after the last treatment i.e. 36 and 43 days after surgical engraftment), the animals were anaesthetised; blood samples were collected from abdominal aorta, sera were separated and stored at −20° C. until analyzed for estradiol-17β level determination. Spleens were excised for measurement of the Natural Killer (NK) activity. The surface area of endometriosis-like foci were measured at each sacrifice time-point in order to normalize data, the percent variation versus the pre-treatment laparatomy value was calculated by the formula: [formula]
where X0 is the size at time of pre-treatment laparatomy and X is the size at the time of sacrifice. The mean value of percent variation in each group was then computed.

[3] = Serum estradiol-17β determination by radioimmunoassay in rats with experimental endometriosis; format: in vivo, rat; conditions: second observation time-point (9 days after last treatment)
Description: as §1
Estradiol-17β determination. Serum estradiol-17β concentrations were determined using a commercially available kit to quantify estradiol in serum with no extraction step (DPC, Los Angeles, Calif., USA). Briefly, ^125I-labeled estradiol competes with estradiol in the serum sample for antibody sites. After incubation, separation of bound from free was achieved by decanting. The tube was then counted in a gamma counter (LKB-Pharmacia Wallak), the counts being inversely related to the amount of estradiol present in the serum sample. The quantity of estradiol in the samples was determined by comparing the counts to a calibration curve. […] Samples from the same experimental session were analyzed in a single immunoassay.

Compound | crude recurrence rates ([1]; after up to 4 years) | patients suffering from pain with improved symptoms ([1]; endometriosis patients) | patients abandoning therapy because of weight gain and androgenic side effects ([1]; human, in vivo) | size reduction of the endometriotic-like foci compared to the original dimension ([2]; 2 days after last treatment (first sacrifice time-point)) [%] | Mean ± SEM Post-treatment values (engraftment surface area) ([2]; 2 days after last treatment) [cm^2] | size reduction of the endometriotic-like foci compared to the original dimension ([2]; 9 days after last treatment (second sacrifice time-point)) [%] | Mean ± SEM Post-treatment values (engraftment surface area) ([2]; 9 days after last treatment) [cm^2] | Mean ± SEM Pre-treatment values (engraftment surface area) ([2]; group observed 2 days after last treatment) [cm^2] | Mean ± SEM Pre-treatment values (engraftment surface area) ([2]; group observed 9 days after last treatment) [cm^2] | serum estradiol-17β concentration compared to untreated controls [3]
C#C[C@]1(O)CC[C@H]2[C@@H]3CCC4=Cc5oncc5C[C@]4(C)[C@H]3CC[C@@]21C [Danazol] | 40%-50% | 66-100% | up to 80% | – | – | – | – | – | – | –
Antide | – | – | – | 94 | 0.08 ± 0.02 | 88 | 0.19 ± 0.09 | 1.43 ± 0.34 | 1.41 ± 0.32 | significant difference
